Laboratory results reported in paper PMC11923649, “Novel C-2 Aromatic Heterocycle-Substituted Triterpenoids Inhibit Hedgehog Signaling in GLI1 Overexpression Cancer Cells” (ACS Omega, 2025).

Tests used:
[1] = tested on: NCI-H322 (NSCLC, low GLI1); assay: MTS cytotoxicity assay, 72 h, NCI-H322; format: cell-based, human; conditions: compared with A549
Source text: (§1) Concerning nonsmall cell lung carcinoma (NSCLC)-derived cell lines, we selected two subtype groups with different expression levels of GLI1, based on a study by Yuan et al.[35] The first group includes cell lines where GLI1 is highly expressed (A549 and NCI-H522), while the second group includes low GLI1-expressing cell lines (HOP-62 and NCI-H322). It has been established that cell lines expressing high levels of GLI1 are relatively resistant to SMO antagonists due to a hyper-activated HH signaling pathway.[35] […] These interesting findings may indicate the potential of 11b to overcome hyper-activated HH signaling in particular NSCLC subsets. […] Lower activity was observed against medulloblastoma (DAYO) and glioblastoma (T98G)-derived cell lines with an IC50 above 20 μmol/L.
(§2) The human prostate tumor-derived cell line DU145 was obtained from ATCC (American Type Culture Collection) and cultured in RPMI 1640 (Roswell Park Memorial Institute) medium supplemented with 10% (v/v) fetal bovine serum (FBS). Human prostate tumor-derived LNCaP cells were obtained from ATCC and cultured in RPMI 1640 medium supplemented with 10% FBS. […] Finally, the absorbance at 490 nm was measured using an EnVision multifunctional modular reader (PerkinElmer). The IC50 value was determined using Dotmatics software.

DAOY (medulloblastoma) = assay: MTS cytotoxicity assay, 72 h, DAOY; format: cell-based; conditions: Homo sapiens, read-out: IC50 medulloblastoma (DAYO)
Source text: as §1, §2

T98G (glioblastoma) = assay: MTS cytotoxicity assay, 72 h, T98G; format: cell-based; conditions: Homo sapiens
Source text: as §1, §2

HOP-62 (NSCLC, low GLI1) = assay: MTS cytotoxicity assay, 72 h, HOP-62; format: cell-based, human; conditions: compared with A549
Source text: as §1, §2

C=C(C)[C@@H]1CC[C@]2(C(=O)O)CC[C@]3(C)C(CCC4[C@@]5(C)C=C(c6ccoc6)C(=O)C(C)(C)C5CC[C@]43C)C12 (stereo partly shown) [Compound 11b, 2-(Furan-3-yl)-3-oxolupa-1,20(29)-dien-28-oic acid]
IC50 of NCI-H322 relative to A549 [1]: almost two times higher
IC50 (DAOY (medulloblastoma)): > 20 µM
IC50 (T98G (glioblastoma)): > 20 µM
IC50 of HOP-62 relative to A549 (HOP-62 (NSCLC, low GLI1)): almost two times higher
